pIC50: −log10 of the molar value.
Columns and labels:
HeLa cell lysates = conditions: 10 h incubation time; ref Kapustin et al. (23); read-out: IC50 Hela cell lysate; cited from earlier work
[1] = test system: HDACs from HeLa cell lysates; format: biochemical; conditions: for pIC50: HeLa cell extract, fluorometric assay, incubating for 8 h, standard deviation in parentheses, read-out: HeLa Cell Lysate IC50
Procedure: (§1) Once prepared, the compounds were screened for inhibition of HDAC activity from the cell lysates of HeLa cells and the recombinant isoforms HDAC3 and HDAC8. […]
(§2) then added followed by further incubation for 10 min at 25 °C. The enzyme activities was measured based on the fluorescence intensity at excitation 350-380 nm and emission 440-480 nm in a plate reader. A control set of data without the presence of inhibitor was acquired using 45 µL of buffer.
(§3) Inhibitors 1-7 were screened using a commercially available In Situ Histone Deacetylase Activity […]
(§4) divergence being the 8 hr incubation time.

Recombinant HDAC 3 = biological target: T1, Recombinant HDAC 3 (Homo sapiens, UniProt O15379); assay: Recombinant HDAC3 inhibition, fluorometric assay, 8 h incubation; format: biochemical; conditions: for pIC50: recombinant HDAC3, fluorometric assay, incubating for 8 h, standard deviation in parentheses
T1 construct: purchased not specified (Fisher Scientific, Sigma-Aldrich or Chem-Impex are named for all reagents)
T1 sequence (O15379 whole entry): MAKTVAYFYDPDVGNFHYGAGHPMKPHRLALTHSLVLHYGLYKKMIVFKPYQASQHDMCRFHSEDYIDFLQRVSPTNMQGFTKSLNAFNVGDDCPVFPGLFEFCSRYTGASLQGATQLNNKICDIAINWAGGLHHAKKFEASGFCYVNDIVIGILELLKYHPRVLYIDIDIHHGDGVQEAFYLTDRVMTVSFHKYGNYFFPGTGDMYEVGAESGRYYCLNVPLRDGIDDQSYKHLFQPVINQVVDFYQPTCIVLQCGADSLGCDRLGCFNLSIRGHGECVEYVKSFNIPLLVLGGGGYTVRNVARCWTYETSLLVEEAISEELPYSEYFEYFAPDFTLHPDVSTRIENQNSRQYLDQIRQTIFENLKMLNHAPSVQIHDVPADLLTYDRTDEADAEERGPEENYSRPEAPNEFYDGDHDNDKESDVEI
T1 sequence (Q9Y618 395-489 partner limits assumed): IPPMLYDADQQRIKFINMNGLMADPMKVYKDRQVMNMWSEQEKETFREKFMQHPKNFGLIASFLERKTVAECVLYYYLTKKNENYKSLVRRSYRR
Procedure: as §1, §2, §3, §4

Recombinant HDAC 8 = biological target: T2, Recombinant HDAC 8 (Homo sapiens, UniProt Q9BY41); assay: Recombinant HDAC8 inhibition, fluorometric assay, 8 h incubation; format: biochemical; conditions: for pIC50: recombinant HDAC8, fluorometric assay, incubating for 8 h, standard deviation in parentheses
T2 construct: purchased not specified (Fisher Scientific, Sigma-Aldrich or Chem-Impex are named for all reagents)
T2 sequence (Q9BY41 1-377): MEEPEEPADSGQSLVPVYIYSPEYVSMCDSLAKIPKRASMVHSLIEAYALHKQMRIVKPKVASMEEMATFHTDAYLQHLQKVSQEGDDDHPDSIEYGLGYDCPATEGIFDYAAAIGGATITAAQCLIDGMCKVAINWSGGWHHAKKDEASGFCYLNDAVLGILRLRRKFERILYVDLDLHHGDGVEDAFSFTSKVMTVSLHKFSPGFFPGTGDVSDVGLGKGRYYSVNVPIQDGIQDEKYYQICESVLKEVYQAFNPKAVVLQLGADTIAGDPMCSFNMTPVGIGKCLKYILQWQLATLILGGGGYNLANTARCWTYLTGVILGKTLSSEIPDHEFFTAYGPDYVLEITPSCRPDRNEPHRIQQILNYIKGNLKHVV
Procedure: as §1, §2, §3, §4

[2] = time course enzyme inhibition assay, inhibitor at 100 μM

SMILES | pIC50 (HeLa cell lysates) | pIC50 [1] | pIC50 (Recombinant HDAC 3) | pIC50 (Recombinant HDAC 8) | Incubation time of optimal inhibition, HDAC 3 (Recombinant HDAC 3; [2]) [h] | Incubation time of optimal inhibition, HeLa cell lysate [1, 2] [h] | Incubation time of optimal inhibition, HDAC 8 (Recombinant HDAC 8; [2]) [h]
CP(=O)(O)CCCCCC(=O)Nc1ccccc1 [PA3] | 2.21 |  |  |  |  |  | 
O=C(CCCCCCOP(=O)(O)O)Nc1ccccc1 [Compound 6] |  | 2.41 |  |  |  |  | 
O=C(CCCCOP(=O)(O)O)Nc1ccccc1 [Compound 4] |  | 2.66 |  |  |  |  | 
O=C(CCCCCOP(O)(O)=S)Nc1ccccc1 [Compound 7] |  | 4.30 | 3.99 | 4.31 |  |  | 
O=C(CCCCCOP(=O)(O)O)Nc1ccccc1 [Compound 5] |  | 4.22 | 3.16 | 3.75 |  |  | 
O=C(CCCCCNP(=O)(O)O)Nc1ccccc1 [Compound 2] |  | 4.15 | 3.62 | 3.89 | 4 | 8 | 8

— PMC9090410 (Journal of Enzyme Inhibition and Medicinal Chemistry, 2022)
